This is an account of results in PubChem BioAssay AID2060907 (Molecular Pharmacology Branch, DTP, NCI, 2025).

The assay has as its system 388556-164-R-J1-PDC complex spheroid viability. In words: Anticancer human tumor 388556-164-R-J1-PDC patient-derived colon adenocarcinoma cell line growth inhibition [RAS]. To be noted: for viability, T/C: stronger effect = lower value. The method, boiled down: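 Multi-cell-type spheroids: tumor cells plus HUVEC endothelial cells and mesenchymal stem cells. RAS-pathway inhibitors were combined with targeted agents, each dosed in half-log steps down from clinical Cmax, or from 10 microM when Cmax was unknown.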

pIC50: −log10 of the molar value. Where “and” joins values, the source holds several entries; their conditions need not be identical. Equal entries are not always repeated. Where only a bound is given, the exact number is not on record here.
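Note: spheroids exposed to compound for 7 days before readout.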
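Throughout, for viability, T/C: 100% = DMSO vehicle control luminescence.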

For orientation: pIC50 means the IC50 on a negative log10 scale, so that one unit is a factor of ten. What is called viability, T/C is the ratio of treated to control. As to `CC(C)NCC(C(=O)N1CCN(c2ncnc3c2C(C)CC3O)CC1)c1ccc(Cl)cc1` (stereo not drawn) + C#Cc1c(F)ccc2cc(O)cc(-c3ncc4c(N5CC6CCC(C5)N6)nc(OCC56CCCN5CC(F)C6)nc4c3F)c12, the pIC50 (curve of first compound, second compound 0.0316 µM) was below 5.00; the negative logarithm of the IC50 (pIC50) (curve of first compound, second compound 0.1 µM) was below 5.00; the pIC50 (curve of first compound, second compound 0.316 µM) is below 5.00; the negative-log IC50 (pIC50) (curve of first compound, second compound 1 µM) was below 5.00; the pIC50 (curve of first compound, second compound 3.16 µM) is below 5.00; the pIC50 (curve of first compound, second compound 10 µM) was 5.05. In addition, the viability, T/C (second compound 0.0316 µM, first compound 0.0316 µM) was 95.9%; the viability, T/C (second compound 0.0316 µM, first compound 0.1 µM) is 106%; the viability, T/C (second compound 0.0316 µM, first compound 0.316 µM) was 109%; the viability, T/C (second compound 0.0316 µM, first compound 1 µM) is 98.6%; the viability, T/C (second compound 0.0316 µM, first compound 3.16 µM) is 99.2%; the viability, T/C (second compound 0.0316 µM, first compound 10 µM) was 100%. The viability, T/C reads like this: (second compound 0.1 µM, first compound 0.0316 µM) 98.5%; (second compound 0.1 µM, first compound 0.1 µM) 107%; (second compound 0.1 µM, first compound 0.316 µM) 99.7%; (second compound 0.1 µM, first compound 1 µM) 96%; (second compound 0.1 µM, first compound 3.16 µM) 113%; (second compound 0.1 µM, first compound 10 µM) 93.6%. Also, the viability, T/C runs as follows: (second compound 0.316 µM, first compound 0.0316 µM) 99%; (second compound 0.316 µM, first compound 0.1 µM) 105%; (second compound 0.316 µM, first compound 0.316 µM) 88.5%; (second compound 0.316 µM, first compound 1 µM) 99.2%; (second compound 0.316 µM, first compound 3.16 µM) 107%; (second compound 0.316 µM, first compound 10 µM) 82.3%. Further, the viability, T/C (second compound 1 µM, first compound 0.0316 µM) was 95.5%; the viability, T/C (second compound 1 µM, first compound 0.1 µM) was 93.1%; the viability, T/C (second compound 1 µM, first compound 0.316 µM) was 69.4%; the viability, T/C (second compound 1 µM, first compound 1 µM) is 92.1%; the viability, T/C (second compound 1 µM, first compound 3.16 µM) was 93.5%; the viability, T/C (second compound 1 µM, first compound 10 µM) is 77.8%. The viability, T/C reads like this: (second compound 3.16 µM, first compound 0.0316 µM) 80.6%; (second compound 3.16 µM, first compound 0.1 µM) 66.6%; (second compound 3.16 µM, first compound 0.316 µM) 75.9%; (second compound 3.16 µM, first compound 1 µM) 83.8%; (second compound 3.16 µM, first compound 3.16 µM) 88.4%; (second compound 3.16 µM, first compound 10 µM) 59.4%. The viability, T/C is, setting by setting: (second compound 10 µM, first compound 0.0316 µM) 69.2%; (second compound 10 µM, first compound 0.1 µM) 67.3%; (second compound 10 µM, first compound 0.316 µM) 73.2%; (second compound 10 µM, first compound 1 µM) 87.2%; (second compound 10 µM, first compound 3.16 µM) 42%; (second compound 10 µM, first compound 10 µM) 53.3%.

For the compound `CC1(C)CCC(Nc2ncc(C(F)(F)F)c(-c3c[nH]c4c(P(C)(C)=O)c(C#N)ccc34)n2)CN1` (stereo not drawn), the viability, T/C was 89.6% and 97.1% and 84.3% (compound 0.000949 µM); 93.9% and 97.5% and 113% (compound 0.003 µM); 95.5% and 100% and 114% (compound 0.00949 µM); 94.3% and 100% (2×) (compound 0.03 µM); 88.2% and 94.4% and 107% (compound 0.0949 µM); 87% and 84.8% and 87.1% (compound 0.3 µM). Further, for the setting “curve of compound”, the pIC50 was below 6.52.

Turning to `Nc1ccn(C2OC(CO)C(O)C2(F)F)c(=O)n1` (stereo not drawn) + CCn1c(-c2cccnc2C(C)OC)c2c3cc(ccc31)N1CCOC(CC(NC(=O)C(C(C)C)N(C)C(=O)C3(F)CCN(C(=O)C#CC(C)(C)N(C)C)CC3)C(=O)N3CCCC(N3)C(=O)OCC(C)(C)C2)C1, the pIC50 is below 6.00 (curve of first compound, second compound 0.000949 µM); below 6.00 (curve of first compound, second compound 0.003 µM); below 6.00 (curve of first compound, second compound 0.00949 µM); below 6.00 (curve of first compound, second compound 0.03 µM); below 6.00 (curve of first compound, second compound 0.0949 µM); below 6.00 (curve of first compound, second compound 0.3 µM). Also, the viability, T/C is 96% (second compound 0.000949 µM, first compound 0.00316 µM); 85.5% (second compound 0.000949 µM, first compound 0.01 µM); 77.4% (second compound 0.000949 µM, first compound 0.0316 µM); 71.8% (second compound 0.000949 µM, first compound 0.1 µM); 71.6% (second compound 0.000949 µM, first compound 0.316 µM); 64.1% (second compound 0.000949 µM, first compound 1 µM). Besides, the viability, T/C is 102% (second compound 0.003 µM, first compound 0.00316 µM); 90.5% (second compound 0.003 µM, first compound 0.01 µM); 76.8% (second compound 0.003 µM, first compound 0.0316 µM); 72.1% (second compound 0.003 µM, first compound 0.1 µM); 72.4% (second compound 0.003 µM, first compound 0.316 µM); 65.8% (second compound 0.003 µM, first compound 1 µM). The viability, T/C reads like this: (second compound 0.00949 µM, first compound 0.00316 µM) 99.1%; (second compound 0.00949 µM, first compound 0.01 µM) 91.8%; (second compound 0.00949 µM, first compound 0.0316 µM) 78.6%; (second compound 0.00949 µM, first compound 0.1 µM) 69.4%; (second compound 0.00949 µM, first compound 0.316 µM) 70%; (second compound 0.00949 µM, first compound 1 µM) 64.5%. Further, the viability, T/C (second compound 0.03 µM, first compound 0.00316 µM) was 98.4%; the viability, T/C (second compound 0.03 µM, first compound 0.01 µM) is 92.7%; the viability, T/C (second compound 0.03 µM, first compound 0.0316 µM) was 79%; the viability, T/C (second compound 0.03 µM, first compound 0.1 µM) was 67.5%; the viability, T/C (second compound 0.03 µM, first compound 0.316 µM) was 70.6%; the viability, T/C (second compound 0.03 µM, first compound 1 µM) is 61.7%. The viability, T/C reads like this: (second compound 0.0949 µM, first compound 0.00316 µM) 90.6%; (second compound 0.0949 µM, first compound 0.01 µM) 86.3%; (second compound 0.0949 µM, first compound 0.0316 µM) 74.7%; (second compound 0.0949 µM, first compound 0.1 µM) 67.6%; (second compound 0.0949 µM, first compound 0.316 µM) 68.1%; (second compound 0.0949 µM, first compound 1 µM) 62.2%. Further, the viability, T/C (second compound 0.3 µM, first compound 0.00316 µM) was 81.7%; the viability, T/C (second compound 0.3 µM, first compound 0.01 µM) is 78%; the viability, T/C (second compound 0.3 µM, first compound 0.0316 µM) is 69.8%; the viability, T/C (second compound 0.3 µM, first compound 0.1 µM) is 68.4%; the viability, T/C (second compound 0.3 µM, first compound 0.316 µM) was 67.2%; the viability, T/C (second compound 0.3 µM, first compound 1 µM) is 59.5%.

Take `CCn1c(-c2cccnc2C(C)OC)c2c3cc(ccc31)N1CCOC(CC(NC(=O)C(C(C)C)N(C)C(=O)C3(F)CCN(C(=O)C#CC(C)(C)N(C)C)CC3)C(=O)N3CCCC(N3)C(=O)OCC(C)(C)C2)C1` (stereo not drawn): the viability, T/C was 105% [middle of 6 runs] (compound 0.000949 µM); 107% [middle of 6 runs] (compound 0.003 µM); 106% [middle of 6 runs] (compound 0.00949 µM); 102% [middle of 6 runs] (compound 0.03 µM); 106% [middle of 6 runs] (compound 0.0949 µM); 100% [middle of 6 runs] (compound 0.3 µM). Where the note is “compound alone, run of 08/20/2024”, the pIC50 is below 6.52.

`Cc1nc(N2CCC3(CC2)COC(C)C3N)c(CO)nc1Sc1ccnc(N)c1Cl` (stereo not drawn): the viability, T/C by setting is: (compound 0.1 µM) 81.2% [middle of 4 runs]; (compound 0.316 µM) 70.5% [middle of 4 runs]; (compound 1 µM) 62.4% [middle of 4 runs]; (compound 3.16 µM) 53.9% [middle of 4 runs]; (compound 10 µM) 46.1% [middle of 4 runs].
